Reference: ChEMBL document CHEMBL1201862, “PubChem BioAssay data set” (2004)
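Values below derive from 48-hour exposures of cells grown in 96-well plates, with endpoints linearly interpolated between the two concentrations bracketing the appropriate inhibition level. GI50 is the concentration that inhibits growth by half.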 Active and inactive are the calls of the source. No stated cut-off is given here; in the data, active = GI50 up to about 1.1 µM and inactive = higher.

Assays:
Assay in all cases: NCI anticancer screen, dose series, 48 h
[1] = tested on: CCRF-CEM
[2] = tested on: MDA-MB-231
[3] = tested on: UACC-62
[4] = tested on: NCI-H23
[5] = tested on: A498
[6] = tested on: OVCAR-3
[7] = tested on: SN12C
[8] = tested on: COLO 205
[9] = tested on: BT-549
[10] = tested on: NCI-H226
[11] = tested on: K562
[12] = tested on: Malme-3M
[13] = tested on: NCI/ADR-RES
[14] = tested on: OVCAR-4
[15] = tested on: SNB-75
[16] = tested on: HOP-62
[17] = tested on: HCT-15
[18] = tested on: T47D
[19] = tested on: CAKI-1

SMILES	GI50 [1]	GI50 [2]	GI50 [3]	GI50 [4]	GI50 [5]	GI50 [6]	GI50 [7]	GI50 [8]	GI50 [9]	GI50 [10]	GI50 [11]	GI50 [12]	GI50 [13]	GI50 [14]	GI50 [15]	GI50 [16]	GI50 [17] [µM]	GI50 [18]	GI50 [19]
COc1cc(OC)c2nc(C)c3c(c2c1)NCC3	5.26 µM (inactive)	7.76 µM (inactive)	9.16 µM (inactive)	6.34 µM (inactive)	13.7 µM (inactive)	10.2 µM (inactive)	4.48 µM (inactive)	4.68 µM (inactive)	14.4 µM (inactive)	3.47 µM (inactive)	0.776 µM (active)	10.4 µM (inactive)	18.4 µM (inactive)	3.63 µM (inactive)	12.4 µM (inactive)	7.74 µM (inactive)	12.1		
CC1(C=O)CC(CCc2ccccc2)NC1Cc1ccc(O)cc1 (centres undefined)	20.2 µM (inactive)	13.6 µM (inactive)	16.6 µM (inactive)	23 µM (inactive)	14.6 µM (inactive)	17 µM (inactive)	16.9 µM (inactive)	10.6 µM (inactive)	22.9 µM (inactive)	15.5 µM (inactive)	16.7 µM (inactive)		18.8 µM (inactive)	14.2 µM (inactive)	14.7 µM (inactive)	18.6 µM (inactive)	21.3	15.8 µM (inactive)	14.8 µM (inactive)
CCOC(=O)c1[nH]cc(C)c1-c1ccc2c(-c3ccccc3)nc3ccccc3n12	2.68 µM (inactive)	3.13 µM (inactive)	2.73 µM (inactive)	5.05 µM (inactive)	2.84 µM (inactive)	4.13 µM (inactive)	3.37 µM (inactive)	2.86 µM (inactive)	5.13 µM (inactive)	5.22 µM (inactive)	3.34 µM (inactive)		2.51 µM (inactive)	3.85 µM (inactive)	1.85 µM (inactive)	5.42 µM (inactive)	3.55	4.43 µM (inactive)	5.89 µM (inactive)
C=CCN1CCC2(CC1)NC(=O)c1ccccc1O2	> 100 µM (inactive)	> 100 µM (inactive)	> 100 µM (inactive)	> 100 µM (inactive)		> 100 µM (inactive)	> 100 µM (inactive)	> 100 µM (inactive)	> 100 µM (inactive)	> 100 µM (inactive)	> 100 µM (inactive)	> 100 µM (inactive)	> 100 µM (inactive)	> 100 µM (inactive)	> 100 µM (inactive)	> 100 µM (inactive)	> 100	> 100 µM (inactive)	> 100 µM (inactive)
CC(C)c1cc(=O)[nH]c2cc(N)ccc12	> 100 µM (inactive)	> 100 µM (inactive)	93.8 µM (inactive)	> 100 µM (inactive)	> 100 µM (inactive)	> 100 µM (inactive)	> 100 µM (inactive)	> 100 µM (inactive)	> 100 µM (inactive)	> 100 µM (inactive)	> 100 µM (inactive)		> 100 µM (inactive)	> 100 µM (inactive)	86.9 µM (inactive)	> 100 µM (inactive)	> 100	> 100 µM (inactive)	> 100 µM (inactive)
O=C(O)CCCn1nnc2c(=O)[nH][nH]c(=O)c21	> 100 µM (inactive)	> 100 µM (inactive)		> 100 µM (inactive)		> 100 µM (inactive)	> 100 µM (inactive)	> 100 µM (inactive)	> 100 µM (inactive)		> 100 µM (inactive)	> 100 µM (inactive)	> 100 µM (inactive)	> 100 µM (inactive)		> 100 µM (inactive)	> 100		> 100 µM (inactive)
CCCCCCOC(=O)C(N)Cc1ccc(OC)cc1 (centres undefined)	26.6 µM (inactive)	> 100 µM (inactive)	> 100 µM (inactive)	> 100 µM (inactive)		> 100 µM (inactive)	> 100 µM (inactive)	> 100 µM (inactive)	> 100 µM (inactive)	> 100 µM (inactive)	> 100 µM (inactive)	> 100 µM (inactive)	> 100 µM (inactive)	> 100 µM (inactive)	> 100 µM (inactive)	> 100 µM (inactive)	> 100	> 100 µM (inactive)	> 100 µM (inactive)
CCOC(=O)c1ccc2nc3n(c2c1)C(c1c(F)cccc1F)SC3 (centres undefined)	> 100 µM (inactive)	> 100 µM (inactive)	> 100 µM (inactive)	78.9 µM (inactive)	> 100 µM (inactive)	67.1 µM (inactive)	> 100 µM (inactive)	> 100 µM (inactive)	> 100 µM (inactive)	15.1 µM (inactive)	> 100 µM (inactive)		> 100 µM (inactive)	> 100 µM (inactive)	> 100 µM (inactive)	57.3 µM (inactive)	> 100	> 100 µM (inactive)	> 100 µM (inactive)
